According to PubChem BioAssay AID1259407 (Chemical Carcinogenesis Research Information System (CCRIS), 2018):
Activity calls are given as the source filed them. The rule behind the calls is not given here.

System: CCRIS mutagenicity, Ames/micronucleus/aberration tests
Assay: CCRIS mutagenicity studies
[1] = Test System: AMES SALMONELLA TYPHIMURIUM, Strain/Indicator: TA98, Metabolic Activation: NONE, Method: PREINCUBATION
[2] = Test System: AMES SALMONELLA TYPHIMURIUM, Strain/Indicator: TA100, Metabolic Activation: NONE, Method: PREINCUBATION
[3] = Test System: AMES SALMONELLA TYPHIMURIUM, Strain/Indicator: TA102, Metabolic Activation: NONE, Method: STANDARD PLATE
[4] = Test System: AMES SALMONELLA TYPHIMURIUM, Strain/Indicator: TA98, Metabolic Activation: NONE, Method: STANDARD PLATE
[5] = Test System: AMES SALMONELLA TYPHIMURIUM, Strain/Indicator: TA98, Metabolic Activation: RAT, LIVER, S-9, AROCLOR 1254, Method: STANDARD PLATE
[6] = Test System: AMES SALMONELLA TYPHIMURIUM, Strain/Indicator: TA100, Metabolic Activation: NONE, Method: STANDARD PLATE
[7] = Test System: AMES SALMONELLA TYPHIMURIUM, Strain/Indicator: TA100, Metabolic Activation: RAT, LIVER, S-9, AROCLOR 1254, Method: STANDARD PLATE
[8] = Test System: AMES SALMONELLA TYPHIMURIUM, Strain/Indicator: TA1535, Metabolic Activation: NONE, Method: STANDARD PLATE

SMILES: Cc1c(N)nc(C(CC(N)=O)NCC(N)C(N)=O)nc1C(=O)NC(C(=O)NC(C)C(O)C(C)C(=O)NC(C(=O)NCCc1nc(-c2nc(C(=O)NCCC[S+](C)C)cs2)cs1)C(C)O)C(O[C@@H]1O[C@@H](CO)[C@@H](O)[C@H](O)[C@@H]1O[C@H]1O[C@H](CO)[C@@H](O)[C@H](OC(N)=O)[C@@H]1O)c1cnc[nH]1 (some centres not stated)
- mutagenic call (End Point: IN VITRO MICRONUCLEUS, Test System: CHO CELLS, Metabolic Activation: RAT, LIVER, S-9, AROCLOR 1254): active; positive
- mutagenic call (End Point: In vitro micronucleus, Test System: Human lymphocytes from 200 volunteers (128 women, 72 men), Metabolic Activation: None): inactive; positive for gstt1-null and xd polymorphisms and spontaneous and bleomycin-induc
- mutagenic call [1]: inactive; negative
- mutagenic call (Test System: AMES SALMONELLA TYPHIMURIUM, Strain/Indicator: TA98, Metabolic Activation: S-9, Method: PREINCUBATION): inactive; negative
- mutagenic call [2]: inactive; negative
- mutagenic call (Test System: AMES SALMONELLA TYPHIMURIUM, Strain/Indicator: TA100, Metabolic Activation: S-9, Method: PREINCUBATION): inactive; negative
- mutagenic call [3]: active; positive
- mutagenic call (Test System: AMES SALMONELLA TYPHIMURIUM, Strain/Indicator: TA2638A, Metabolic Activation: NONE, Method: STANDARD PLATE): inactive; negative

SMILES: CNC(=O)Oc1ccccc1OC(C)C
- mutagenic call (Test System: AMES SALMONELLA TYPHIMURIUM, Strain/Indicator: TA98, Metabolic Activation: HAMSTER, LIVER, S-9, AROCLOR 1254, Method: STANDARD PLATE): inactive; negative
- mutagenic call [4]: inactive; negative
- mutagenic call [5]: inactive; negative
- mutagenic call (Test System: AMES SALMONELLA TYPHIMURIUM, Strain/Indicator: TA100, Metabolic Activation: HAMSTER, LIVER, S-9, AROCLOR 1254, Method: STANDARD PLATE): inactive; negative
- mutagenic call [6]: inactive; negative
- mutagenic call [7]: inactive; negative
- mutagenic call [8]: active; positive
- mutagenic call (Test System: AMES SALMONELLA TYPHIMURIUM, Strain/Indicator: TA1537, Metabolic Activation: NONE, Method: STANDARD PLATE): inactive; negative
- mutagenic call (Test System: AMES SALMONELLA TYPHIMURIUM, Strain/Indicator: TA1537, Metabolic Activation: RAT, LIVER, S-9, AROCLOR 1254, Method: STANDARD PLATE): inactive; negative
- mutagenic call (Test System: AMES SALMONELLA TYPHIMURIUM, Strain/Indicator: TA1538, Metabolic Activation: HAMSTER, LIVER, S-9, AROCLOR 1254, Method: STANDARD PLATE): inactive; negative
- mutagenic call (Test System: AMES SALMONELLA TYPHIMURIUM, Strain/Indicator: TA1538, Metabolic Activation: NONE, Method: STANDARD PLATE): inactive; negative
- mutagenic call (Test System: AMES SALMONELLA TYPHIMURIUM, Strain/Indicator: TA1538, Metabolic Activation: RAT, LIVER, S-9, AROCLOR 1254, Method: STANDARD PLATE): inactive; negative
- mutagenic call (Test System: CHINESE HAMSTER V-79, Strain/Indicator: V-79(HPRT)/6-THIOGUANINE, Metabolic Activation: NONE): inactive; negative
- mutagenic call (Test System: MOUSE LYMPHOMA, Strain/Indicator: L5178Y (TK+/TK-), Metabolic Activation: NONE, Method: SUSPENSION/PLATE): active; positive. reevaluation of results: positive
- mutagenic call (Test System: MOUSE LYMPHOMA, Strain/Indicator: L5178Y (TK+/TK-), Metabolic Activation: RAT, LIVER, S-9, AROCLOR 1254, Method: SUSPENSION/PLATE): active; positive. reevaluation of results: positive

SMILES: Cc1cccc(CN(C)N=O)c1
- mutagenic call (Test System: AMES SALMONELLA TYPHIMURIUM, Strain/Indicator: TA1535, Metabolic Activation: HAMSTER, LIVER, S-9, AROCLOR 1254, Method: STANDARD PLATE): active; positive
- mutagenic call [8]: inactive; negative

SMILES: CNP(=S)(N1CC1)N1CC1
- mutagenic call (Test System: AMES SALMONELLA TYPHIMURIUM, Strain/Indicator: G46, Metabolic Activation: HOST MEDIATED, Method: STANDARD PLATE): active; positive

SMILES: CCCCOCCO
- mutagenic call (Test System: AMES SALMONELLA TYPHIMURIUM, Strain/Indicator: TA97, Metabolic Activation: HAMSTER, LIVER, S-9, AROCLOR 1254 (10 OR 30%), Method: PREINCUBATION): inactive; negative
- mutagenic call (Test System: AMES SALMONELLA TYPHIMURIUM, Strain/Indicator: TA97, Metabolic Activation: NONE, Method: PREINCUBATION): inactive; negative
- mutagenic call (Test System: AMES SALMONELLA TYPHIMURIUM, Strain/Indicator: TA97, Metabolic Activation: RAT, LIVER, S-9, AROCLOR 1254 (5, 10 OR 30%), Method: PREINCUBATION): inactive; negative
- mutagenic call (Test System: AMES SALMONELLA TYPHIMURIUM, Strain/Indicator: TA97A, Metabolic Activation: RAT, LIVER, S-9, AROCLOR 1254 (2.5 OR 10%), Method: STANDARD PLATE): inactive; negative
- mutagenic call (Test System: AMES SALMONELLA TYPHIMURIUM, Strain/Indicator: TA97A, Metabolic Activation: RAT, LIVER, S-9, AROCLOR 1254, Method: STANDARD PLATE): active; positive
- mutagenic call (Test System: AMES SALMONELLA TYPHIMURIUM, Strain/Indicator: TA98, Metabolic Activation: HAMSTER, LIVER, S-9, AROCLOR 1254 (10 OR 30%), Method: PREINCUBATION): inactive; negative
- mutagenic call [1]: inactive; negative
- mutagenic call [4]: inactive; negative
- mutagenic call (Test System: AMES SALMONELLA TYPHIMURIUM, Strain/Indicator: TA98, Metabolic Activation: RAT, LIVER, S-9, AROCLOR 1254 (10 OR 30%), Method: PREINCUBATION): inactive; negative
- mutagenic call [5]: inactive; negative
- mutagenic call (Test System: AMES SALMONELLA TYPHIMURIUM, Strain/Indicator: TA100, Metabolic Activation: HAMSTER, LIVER, S-9, AROCLOR 1254 (10 OR 30%), Method: PREINCUBATION): inactive; negative
- mutagenic call [2]: inactive; negative
- mutagenic call [6]: inactive; negative
- mutagenic call (Test System: AMES SALMONELLA TYPHIMURIUM, Strain/Indicator: TA100, Metabolic Activation: RAT, LIVER, S-9, AROCLOR 1254 (2.5 OR 10%), Method: STANDARD PLATE): inactive; negative
- mutagenic call (Test System: AMES SALMONELLA TYPHIMURIUM, Strain/Indicator: TA100, Metabolic Activation: RAT, LIVER, S-9, AROCLOR 1254 (10 OR 30%), Method: PREINCUBATION): inactive; negative
- mutagenic call [7]: inactive; negative
- mutagenic call [3]: inactive; negative
- mutagenic call (Test System: AMES SALMONELLA TYPHIMURIUM, Strain/Indicator: TA102, Metabolic Activation: RAT, LIVER, S-9, AROCLOR 1254, Method: STANDARD PLATE): inactive; negative
- mutagenic call (Test System: AMES SALMONELLA TYPHIMURIUM, Strain/Indicator: TA1535, Metabolic Activation: HAMSTER, LIVER, S-9, AROCLOR 1254 (10 OR 30%), Method: PREINCUBATION): inactive; negative
- mutagenic call (Test System: AMES SALMONELLA TYPHIMURIUM, Strain/Indicator: TA1535, Metabolic Activation: NONE, Method: PREINCUBATION): inactive; negative
- mutagenic call (Test System: AMES SALMONELLA TYPHIMURIUM, Strain/Indicator: TA1535, Metabolic Activation: RAT, LIVER, S-9, AROCLOR 1254 (10 OR 30%), Method: PREINCUBATION): inactive; negative
- mutagenic call (Test System: AMES SALMONELLA TYPHIMURIUM, Strain/Indicator: TA1537, Metabolic Activation: HAMSTER, LIVER, S-9, AROCLOR 1254 (30%), Method: PREINCUBATION): inactive; negative
- mutagenic call (Test System: AMES SALMONELLA TYPHIMURIUM, Strain/Indicator: TA1537, Metabolic Activation: NONE, Method: PREINCUBATION): inactive; negative
- mutagenic call (Test System: AMES SALMONELLA TYPHIMURIUM, Strain/Indicator: TA1537, Metabolic Activation: RAT, LIVER, S-9, AROCLOR 1254 (30%), Method: PREINCUBATION): inactive; negative
- mutagenic call (Test System: CHINESE HAMSTER OVARY, Strain/Indicator: CHO-AS52/6-THIOGUANINE, Metabolic Activation: NONE): inactive; negative
- mutagenic call (Test System: CHINESE HAMSTER V-79, Strain/Indicator: V-79 (HPRT)/6-THIOGUANINE, Metabolic Activation: NONE): active; positive
- mutagenic call (Test System: E. COLI, Strain/Indicator: WP2 UVRA, Metabolic Activation: NONE, Method: STANDARD PLATE): inactive; negative
- mutagenic call (Test System: E. COLI, Strain/Indicator: WP2 UVRA, Metabolic Activation: RAT, LIVER, S-9, AROCLOR 1254 (2.5 OR 10%), Method: STANDARD PLATE): inactive; negative

SMILES: Cc1cccc2cccc([N+](=O)[O-])c12
- mutagenic call [1]: active; positive

SMILES: Cc1cc(O)c2c(c1O)C(=O)C13C(=C2O)C(=O)C2C(O)C1C1C(O)C3C(=O)C3=C(O)c4c(O)cc(C)c(O)c4C(=O)C321 (configuration not stated)
- mutagenic call [2]: inactive; negative
- mutagenic call (Test System: AMES SALMONELLA TYPHIMURIUM, Strain/Indicator: TA100, Metabolic Activation: RAT, LIVER, S-9, PHENOBARBITAL, Method: PREINCUBATION): inactive; negative
